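All cell lines were grown in 96-well plates and treated with compound for 48 hours. The concentration for 50% growth inhibition is given as GI50.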 Active and inactive are the calls of the source. No stated cut-off is given here; in the data, active = GI50 up to about 1.1 µM and inactive = higher.
How the values were obtained:
Experiment in all cases: growth of human tumour cells (NCI), 48 h
ACHN = tested on: ACHN
DLD-1 = tested on: DLD-1
HOP-62 = tested on: HOP-62
IGROV-1 = tested on: IGROV-1
LOX IMVI = tested on: LOX IMVI
Malme-3M = tested on: Malme-3M
NCI-H226 = tested on: NCI-H226
OVCAR-5 = tested on: OVCAR-5
SF-539 = tested on: SF-539
SK-MEL-2 = tested on: SK-MEL-2
SK-OV-3 = tested on: SK-OV-3
SNB-75 = tested on: SNB-75
SW-620 = tested on: SW-620
U-251 = tested on: U-251
UACC-62 = tested on: UACC-62
UO-31 = tested on: UO-31
HCC 2998 = tested on: HCC 2998
MDA-MB-435 = tested on: MDA-MB-435
MDA-N = tested on: MDA-N
PC-3 = tested on: PC-3

SMILES	GI50 (ACHN)	GI50 (DLD-1)	GI50 (HOP-62)	GI50 (IGROV-1)	GI50 (LOX IMVI)	GI50 (Malme-3M)	GI50 (NCI-H226)	GI50 (OVCAR-5)	GI50 (SF-539)	GI50 (SK-MEL-2)	GI50 (SK-OV-3)	GI50 (SNB-75)	GI50 (SW-620)	GI50 (U-251)	GI50 (UACC-62)	GI50 (UO-31)	GI50 (HCC 2998)	GI50 (MDA-MB-435)	GI50 (MDA-N)	GI50 (PC-3)
Cc1n[nH]c(=S)n(C)c1=S	> 100 µM (inactive)	> 100 µM (inactive)	> 100 µM (inactive)	> 100 µM (inactive)	> 100 µM (inactive)	> 100 µM (inactive)	> 100 µM (inactive)	> 100 µM (inactive)	> 100 µM (inactive)	> 100 µM (inactive)	> 100 µM (inactive)	> 100 µM (inactive)	> 100 µM (inactive)	> 100 µM (inactive)	> 100 µM (inactive)	> 100 µM (inactive)				
COc1ccc(N2C(=O)C3CC(c4ccc(Br)cc4)c4c([nH]c5ccccc45)C3C2=O)cc1 (stereo unspecified)	4.51 µM (inactive)	10.1 µM (inactive)	3.91 µM (inactive)	10.6 µM (inactive)	4.69 µM (inactive)	14.8 µM (inactive)	18.6 µM (inactive)	22.6 µM (inactive)	3.52 µM (inactive)	60.7 µM (inactive)		9.12 µM (inactive)	5.81 µM (inactive)		16.1 µM (inactive)	11 µM (inactive)				
CN(C)CCC(/C=C/c1ccccc1)=N\Nc1ccc(Cl)cc1Cl	12.7 µM (inactive)	14.1 µM (inactive)	13.6 µM (inactive)	8.02 µM (inactive)		18.5 µM (inactive)		15.5 µM (inactive)	15.2 µM (inactive)	13.3 µM (inactive)	10.8 µM (inactive)	6.1 µM (inactive)	14 µM (inactive)	11.6 µM (inactive)	9.35 µM (inactive)	1.73 µM (inactive)				
CC(C)Nc1[nH]c(C(=O)c2ccccc2)c(N)c1C(=S)Nc1ccccc1	63.1 µM (inactive)		> 100 µM (inactive)	> 100 µM (inactive)	23.2 µM (inactive)	19.3 µM (inactive)	41.3 µM (inactive)	> 100 µM (inactive)	> 100 µM (inactive)	23.8 µM (inactive)	> 100 µM (inactive)	69.3 µM (inactive)	47 µM (inactive)	43.2 µM (inactive)	16.9 µM (inactive)	77.1 µM (inactive)	21.8 µM (inactive)	30.8 µM (inactive)	40.4 µM (inactive)	> 100 µM (inactive)
CC(OCc1ccccc1)C(NC(=O)C1CSSCC(NC(=O)C(Cc2ccccc2)NC(=O)OCc2ccccc2)C(=O)NC(Cc2ccccc2)C(=O)NC(Cc2cn(C=O)c3ccccc23)C(=O)NC(CCCCNC(=O)OCc2ccccc2)C(=O)NC(C(C)OCc2ccccc2)C(=O)N1)C(N)=O (stereo unspecified)	> 59.6 µM (inactive)		55.1 µM (inactive)	22.6 µM (inactive)	20 µM (inactive)	41.1 µM (inactive)	> 75 µM (inactive)	45 µM (inactive)	> 100 µM (inactive)	13.1 µM (inactive)	> 35.2 µM (inactive)	22.1 µM (inactive)	13.4 µM (inactive)	25.1 µM (inactive)	72.6 µM (inactive)	78.3 µM (inactive)	7.43 µM (inactive)	37.9 µM (inactive)	24.2 µM (inactive)	19.1 µM (inactive)
COc1cc(/C=C/c2ccc(OC)c(O)c2)cc(OC)c1	7.52 µM (inactive)	5.52 µM (inactive)	4.2 µM (inactive)	18.7 µM (inactive)	12.2 µM (inactive)	10 µM (inactive)	3.45 µM (inactive)	31.8 µM (inactive)	2.39 µM (inactive)	6.41 µM (inactive)	36.1 µM (inactive)		3.82 µM (inactive)	3.92 µM (inactive)	3.15 µM (inactive)	9.46 µM (inactive)	20.3 µM (inactive)			
O=C(O)[C@H]1NC[C@H]2C(Br)=NO[C@@H]12	> 100 µM (inactive)		> 100 µM (inactive)	> 100 µM (inactive)	> 100 µM (inactive)	> 100 µM (inactive)	> 100 µM (inactive)	> 100 µM (inactive)	> 100 µM (inactive)	> 100 µM (inactive)	> 100 µM (inactive)	> 100 µM (inactive)	> 100 µM (inactive)	> 100 µM (inactive)	> 100 µM (inactive)	> 100 µM (inactive)	> 100 µM (inactive)	> 100 µM (inactive)	> 100 µM (inactive)	> 100 µM (inactive)
c1ccc(CNc2c3c(nc4ccccc24)CCC3)cc1	17.5 µM (inactive)		8.97 µM (inactive)	15.8 µM (inactive)	14 µM (inactive)	17.3 µM (inactive)	17.1 µM (inactive)	15.5 µM (inactive)	14.5 µM (inactive)	13.8 µM (inactive)	15.4 µM (inactive)	18 µM (inactive)	11.9 µM (inactive)	14.9 µM (inactive)	12.8 µM (inactive)	11.4 µM (inactive)	13.5 µM (inactive)	15.3 µM (inactive)	14.7 µM (inactive)	13.2 µM (inactive)
CC12CCC(C(=O)n3c1nc1ccccc13)C(C)(C)O2 (stereo unspecified)	> 100 µM (inactive)		> 100 µM (inactive)	> 100 µM (inactive)	> 100 µM (inactive)	> 100 µM (inactive)	> 100 µM (inactive)	> 100 µM (inactive)	> 100 µM (inactive)	> 100 µM (inactive)	> 100 µM (inactive)	15.6 µM (inactive)	> 100 µM (inactive)	> 100 µM (inactive)	> 100 µM (inactive)	75.3 µM (inactive)	> 100 µM (inactive)	> 100 µM (inactive)	> 100 µM (inactive)	> 100 µM (inactive)
COC(=O)C1=C(C)NC(C)=C(C(=O)OC)C1c1ccc(NO)cc1	12.6 µM (inactive)		14.6 µM (inactive)	16.3 µM (inactive)	5.68 µM (inactive)	13 µM (inactive)	17.3 µM (inactive)	15.7 µM (inactive)	15.8 µM (inactive)	17.1 µM (inactive)	23.4 µM (inactive)	13.2 µM (inactive)	4.09 µM (inactive)	15.9 µM (inactive)	13 µM (inactive)	11.3 µM (inactive)	18.7 µM (inactive)	14.1 µM (inactive)	12.2 µM (inactive)	13.4 µM (inactive)
CC(C)OC(=O)C(NC(=O)C(CC(=O)OCc1ccccc1)NC(=O)OCc1ccccc1)NC(=O)C1C(C)(C)CCC1(C)C (stereo unspecified)	3.56 µM (inactive)		6.56 µM (inactive)	13.7 µM (inactive)	4.56 µM (inactive)	18 µM (inactive)	7.21 µM (inactive)	14.8 µM (inactive)	2.81 µM (inactive)	19.5 µM (inactive)	4.18 µM (inactive)	2.68 µM (inactive)	3.23 µM (inactive)	2.14 µM (inactive)	20.7 µM (inactive)	4.84 µM (inactive)	24.9 µM (inactive)	23.8 µM (inactive)	10.1 µM (inactive)	2.8 µM (inactive)
N#Cc1c2ccccc2c(Cc2ccc3c(c2)OCCOCCOCCOCCOCCO3)c2ccccc12	9.86 µM (inactive)	10.3 µM (inactive)	10.3 µM (inactive)	4.34 µM (inactive)	6.04 µM (inactive)	6.44 µM (inactive)	11.9 µM (inactive)	16.4 µM (inactive)	14.1 µM (inactive)	6.34 µM (inactive)	13.6 µM (inactive)		6.71 µM (inactive)	9.44 µM (inactive)	6.41 µM (inactive)	3.85 µM (inactive)	11.8 µM (inactive)			
CCOc1ccc2c(c1)[n+]([O-])c(-c1ccc(Cl)cc1)c(N)[n+]2[O-]	> 100 µM (inactive)	> 100 µM (inactive)	> 100 µM (inactive)	> 100 µM (inactive)		> 100 µM (inactive)	> 100 µM (inactive)	> 100 µM (inactive)	> 100 µM (inactive)	> 100 µM (inactive)	> 100 µM (inactive)	85.1 µM (inactive)	> 100 µM (inactive)	> 100 µM (inactive)		67.1 µM (inactive)				
COc1ccc(CCNC(=S)NC=C2C(=O)c3ccccc3C2=O)cc1OC	> 100 µM (inactive)		> 100 µM (inactive)	> 100 µM (inactive)	> 100 µM (inactive)	> 100 µM (inactive)	> 100 µM (inactive)	> 100 µM (inactive)	0.433 µM (active)	> 100 µM (inactive)	> 100 µM (inactive)	19.8 µM (inactive)	> 100 µM (inactive)	> 100 µM (inactive)	> 100 µM (inactive)	27.7 µM (inactive)	> 100 µM (inactive)	> 100 µM (inactive)	> 100 µM (inactive)	> 100 µM (inactive)
CC(=O)NC1C(OCC(=O)NC(C)C(=O)NC(CCC(=O)NCCCCCNc2ccc([N+](=O)[O-])c3[nH]c4ccccc4c(=O)c23)C(N)=O)C(O)C(CO)OC1(C)OCc1ccccc1 (stereo unspecified)	31.6 µM (inactive)		14.8 µM (inactive)	> 50 µM (inactive)	> 50 µM (inactive)	12 µM (inactive)	> 50 µM (inactive)	> 50 µM (inactive)	> 50 µM (inactive)	> 50 µM (inactive)	39.1 µM (inactive)	24.8 µM (inactive)	> 50 µM (inactive)	39.3 µM (inactive)	> 50 µM (inactive)	> 50 µM (inactive)	> 50 µM (inactive)	> 50 µM (inactive)	> 50 µM (inactive)	> 50 µM (inactive)

Reference: ChEMBL document CHEMBL1201862, “PubChem BioAssay data set” (2004)
